According to patent publication US20260356856A1, “KRAS G12S AND G12C INHIBITORS” (MIRATI THERAPEUTICS, INC., priority 2023, published 2026):

Tests used:
KRas WT = target: T1, KRas WT (Homo sapiens, UniProt P01116); assay: KRas binding assay, TR-FRET displacement of Cy5 labelled tracer; conditions: 60-minute incubation at room temperature, 1% DMSO, pH 7.5
T1 construct: Biotinylated KRas (corresponding to amino acids 1-169, produced at Accelegan Inc.); biotin (biotinylated); purchased Accelegan Inc
T1 sequence (P01116 1-169 isoform P01116-2): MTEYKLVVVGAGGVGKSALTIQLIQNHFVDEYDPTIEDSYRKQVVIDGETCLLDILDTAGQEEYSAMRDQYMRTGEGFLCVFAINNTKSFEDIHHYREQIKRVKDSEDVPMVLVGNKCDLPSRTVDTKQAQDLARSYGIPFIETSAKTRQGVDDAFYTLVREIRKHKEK
In short: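 IC50 came from fitting POC values with a four-parameter equation. Signal was read after one hour at room temperature. Protein was biotin-tagged KRas 1-169 captured by terbium streptavidin, with compound in 1% DMSO (final).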

KRas G12C = target: T2, KRas G12C (Homo sapiens, UniProt P01116, G12C); assay: as above; conditions: 60-minute incubation at room temperature, 1% DMSO, pH 7.5
T2 construct: Biotinylated KRas (corresponding to amino acids 1-169, produced at Accelegan Inc.); biotin (biotinylated); purchased Accelegan Inc
T2 sequence (P01116 1-169 isoform P01116-2 G12C): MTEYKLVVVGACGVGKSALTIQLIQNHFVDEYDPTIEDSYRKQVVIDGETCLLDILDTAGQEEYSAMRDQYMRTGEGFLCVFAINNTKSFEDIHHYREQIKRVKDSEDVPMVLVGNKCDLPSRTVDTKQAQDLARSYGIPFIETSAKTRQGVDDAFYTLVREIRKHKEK
In short: (§1)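 Compound competes with tracer for biotin-labelled KRas (amino acids 1-169) bound to terbium-streptavidin. Incubation runs 60 minutes at room temperature, final DMSO 1%. IC50 values derive from a 4-parameter fit.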

KRas G12S = target: T3, KRas G12S (Homo sapiens, UniProt P01116, G12S); assay: as above; conditions: 60-minute incubation at room temperature, 1% DMSO, pH 7.5
T3 construct: Biotinylated KRas (corresponding to amino acids 1-169, produced at Accelegan Inc.); biotin (biotinylated); purchased Accelegan Inc
T3 sequence (P01116 1-169 isoform P01116-2 G12S): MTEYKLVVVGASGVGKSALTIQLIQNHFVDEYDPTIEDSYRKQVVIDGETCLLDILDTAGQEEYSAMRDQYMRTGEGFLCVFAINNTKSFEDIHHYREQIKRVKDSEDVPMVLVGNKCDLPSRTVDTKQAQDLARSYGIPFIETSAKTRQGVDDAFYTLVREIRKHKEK
In short: as §1

[1] = target: T4, KRas-mediated phosphorylation of ERK in MKN1 cells (Homo sapiens, UniProt P01116); assay: Inhibition of KRas-mediated phosphorylation of ERK (HTRF), MKN1 cells; format: cell-based; conditions: MKN1 cells (KRas WT); HTRF pERK; 3 h incubation
T4 construct: pERK HTRF read-out
T4 sequence (P01116 1-188 isoform P01116-2): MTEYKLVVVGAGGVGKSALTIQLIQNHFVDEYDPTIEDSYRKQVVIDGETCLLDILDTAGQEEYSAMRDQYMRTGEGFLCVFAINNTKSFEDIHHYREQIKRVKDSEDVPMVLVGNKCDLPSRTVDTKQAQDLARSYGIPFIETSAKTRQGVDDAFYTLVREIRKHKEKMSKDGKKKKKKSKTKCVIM
Description: Inhibition of KRas Phosphorylation of ERK (HTRF) by Exemplary Compounds of Formula (Ia) or (Ib)
Cisbio HTRF Advanced pERK Assay Catalog #64AERPEH • Cells: MKN1, PSN1 • Procedure: • 1. Day 1: Seed 6,000 cells/well −25 μl/well in 384-well white solid bottom plate; RPM1_10% FBS. Incubate overnight at 37 °C/5% CO2. • 2.

[2] = target: T5, KRas-mediated phosphorylation of ERK in H358 cells (Homo sapiens, UniProt P01116, G12C); assay: Inhibition of KRas-mediated phosphorylation of ERK (HTRF), H358 cells; format: cell-based; conditions: HTRF pERK, 3 h incubation
T5 construct: pERK HTRF read-out
T5 sequence (P01116 1-188 isoform P01116-2 G12C): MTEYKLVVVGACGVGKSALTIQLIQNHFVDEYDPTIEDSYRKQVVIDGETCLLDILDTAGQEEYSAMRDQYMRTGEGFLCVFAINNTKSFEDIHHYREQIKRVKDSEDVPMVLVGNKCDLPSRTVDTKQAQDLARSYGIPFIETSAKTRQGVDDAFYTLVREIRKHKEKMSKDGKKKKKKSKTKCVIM

[3] = target: T6, KRas-mediated phosphorylation of ERK in A549 cells (Homo sapiens, UniProt P01116, G12S); assay: Inhibition of KRas-mediated phosphorylation of ERK (HTRF), A549 cells; format: cell-based; conditions: HTRF pERK, 3 h incubation
T6 construct: pERK HTRF read-out
T6 sequence (P01116 1-188 isoform P01116-2 G12S): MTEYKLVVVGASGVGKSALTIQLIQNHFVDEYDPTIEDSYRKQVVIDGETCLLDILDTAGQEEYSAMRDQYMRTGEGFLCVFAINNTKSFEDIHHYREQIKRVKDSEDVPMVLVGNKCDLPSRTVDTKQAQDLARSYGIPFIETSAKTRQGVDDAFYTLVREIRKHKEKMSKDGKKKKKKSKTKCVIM

Row | SMILES | IC50 (KRas WT) [nM] | IC50 (KRas G12C) [nM] | IC50 (KRas G12S) [nM] | IC50 [1] [nM] | IC50 [2] [nM] | IC50 [3] [nM]
1 | CCc1c(F)ccc2cc(O)cc(-c3ncc4c(N5CCN(C(=O)n6ccnn6)CC5)nc(OC[C@@]56CCCN5C[C@H](F)C6)nc4c3F)c12 [Example 151, (4-(7-(8-ethyl-7-fluoro-3-hydroxynaphthalen-1-yl)-8-fluoro-2-(((2R,7aS)-2-fluorotetrahydro-1H-pyrrolizin-7a(5H)-yl)methoxy)pyrido[4,3-d]pyrimidin-4-yl)piperazin-1-yl)(1H-1,2,3-triazol-1-yl)methanone] | 9 | 12 | 18 | 72 | 14 | 1210
2 | Cc1ccn(C(=O)C2CCCN(c3nc(OC[C@@]45CCCN4C[C@H](F)C5)nc4c(F)c(-c5ccc(F)c6sc(N)c(C#N)c56)c(Cl)cc34)CC2)n1 (stereo partly drawn) [Example 130, 2-amino-4-(6-chloro-8-fluoro-2-(((2R,7aS)-2-fluorotetrahydro-1H-pyrrolizin-7a(5H)-yl)methoxy)-4-(4-(3-methyl-1H-pyrazole-1-carbonyl)azepan-1-yl)quinazolin-7-yl)-7-fluorobenzo[b]thiophene-3-carbonitrile] | 10 | 11 | 8 | 200 | 7 | 7
3 | Cc1ccn(C(=O)CCNc2cc(-c3noc4c3CCC[C@@]43CCCc4sc(N)c(C#N)c43)nc(N3CCNC[C@@H]3C)n2)n1 [Example 321, (S)-2-amino-3′-(6-((3-(3-methyl-1H-pyrazol-1-yl)-3-oxopropyl)amino)-2-((S)-2-methylpiperazin-1-yl)pyrimidin-4-yl)-5′,6,6′,7-tetrahydro-4′H,5H-spiro[benzo[b]thiophene-4,7′-benzo[d]isoxazole]-3-carbonitrile] | 28 | 14 | 21 | 861 | 1060 | 192
4 | Cc1ccn(C(=O)CCNc2cc(O[C@@H](C)[C@@H]3CCCN3C)nc(-c3noc([C@@]4(C)CCCc5sc(N)c(C#N)c54)n3)n2)n1 [Example 318, (S)-2-amino-4-methyl-4-(3-(4-((3-(3-methyl-1H-pyrazol-1-yl)-3-oxopropyl)amino)-6-((S)-1-((S)-1-methylpyrrolidin-2-yl)ethoxy)pyrimidin-2-yl)-1,2,4-oxadiazol-5-yl)-4,5,6,7-tetrahydrobenzo[b]thiophene-3-carbonitrile] | 12 | 2 | 3 | 801 | 908 | 17
5 | COc1cccc(OC(=O)C2CCN(c3nc(OC[C@@]45CCCN4C[C@H](F)C5)nc4c(F)c(-c5ccc(F)c6sc(N)c(C#N)c56)c(Cl)cc34)CC2)c1 [Example 244, 3-methoxyphenyl 1-(7-(2-amino-3-cyano-7-fluorobenzo[b]thiophen-4-yl)-6-chloro-8-fluoro-2-(((2R,7aS)-2-fluorotetrahydro-1H-pyrrolizin-7a(5H)-yl)methoxy)quinazolin-4-yl)piperidine-4-carboxylate] | 289 | 9 | 23 | 279 | 12 | 55
6 | CN(CCCC(=O)Oc1cccc(F)c1)c1nc(OC[C@@]23CCCN2C[C@H](F)C3)nc2c(F)c(-c3ccc(F)c4sc(N)c(C#N)c34)c(Cl)cc12 [Example 198, 3-fluorophenyl 4-((7-(2-amino-3-cyano-7-fluorobenzo[b]thiophen-4-yl)-6-chloro-8-fluoro-2-(((2R,7aS)-2-fluorotetrahydro-1H-pyrrolizin-7a(5H)-yl)methoxy)quinazolin-4-yl)(methyl)amino)butanoate] | 77 | 2 | 14 | 159 | 28 | 489
7 | CCc1c(F)ccc2cc(O)cc(-c3ncc4c(N5CCCC(C(=O)N(C)C(C)=O)CC5)nc(OC[C@@]56CCCN5C[C@H](F)C6)nc4c3F)c12 (stereo partly drawn) [Example 285, N-acetyl-1-(7-(8-ethyl-7-fluoro-3-hydroxynaphthalen-1-yl)-8-fluoro-2-(((2R,7aS)-2-fluorotetrahydro-1H-pyrrolizin-7a(5H)-yl)methoxy)pyrido[4,3-d]pyrimidin-4-yl)-N-methylazepane-4-carboxamide] | 492 | 882 | 175 | 2420 | 4290 | 151
8 | Cc1ccn(C(=O)[C@H]2CCCN(c3nc(OC[C@@]45CCCN4C[C@H](F)C5)nc4c(F)c(-c5ccc(F)c6sc(N)c(C#N)c56)c(Cl)cc34)CC2)n1 (atropisomer, axis not shown; (aS)) [Example 170, 2-amino-4-((S)-6-chloro-8-fluoro-2-(((2R,7aS)-2-fluorotetrahydro-1H-pyrrolizin-7a(5H)-yl)methoxy)-4-((S)-4-(3-methyl-1H-pyrazole-1-carbonyl)azepan-1-yl)quinazolin-7-yl)-7-fluorobenzo[b]thiophene-3-carbonitrile] | 9 | 2 | 2 | 53 | 3 | 2
9 | CCc1c(F)ccc2cc(O)cc(-c3ncc4c(N5CCC(C(=O)n6ccc(OC)n6)CC5)nc(OC[C@@]56CCCN5C[C@H](F)C6)nc4c3F)c12 [Example 61, (1-(7-(8-ethyl-7-fluoro-3-hydroxynaphthalen-1-yl)-8-fluoro-2-(((2R,7aS)-2-fluorotetrahydro-1H-pyrrolizin-7a(5H)-yl)methoxy)pyrido[4,3-d]pyrimidin-4-yl)piperidin-4-yl)(3-methoxy-1H-pyrazol-1-yl)methanone] | 136 | 336 | 34 | 2610 | 8570 | 84
10 | CCc1c(F)ccc2cc(O)cc(-c3ncc4c(N(C)CCNC(=O)n5cncn5)nc(OC[C@@]56CCCN5C[C@H](F)C6)nc4c3F)c12 [Example 225, N-(2-((7-(8-ethyl-7-fluoro-3-hydroxynaphthalen-1-yl)-8-fluoro-2-(((2R,7aS)-2-fluorotetrahydro-1H-pyrrolizin-7a(5H)-yl)methoxy)pyrido[4,3-d]pyrimidin-4-yl)(methyl)amino)ethyl)-1H-1,2,4-triazole-1-carboxamide] | 30 | 6 | 18 | 237 | 13 | 2730
11 | CC(=O)N(C)C(=O)[C@@H]1C[C@@H]2CN(c3nc(OC[C@@]45CCCN4C[C@H](F)C5)nc4c(F)c(-c5ccc(F)c6sc(N)c(C#N)c56)c(Cl)cc34)C[C@@H]2C1 [Example 237, (3aR,5R,6aS)-N-acetyl-2-((S)-7-(2-amino-3-cyano-7-fluorobenzo[b]thiophen-4-yl)-6-chloro-8-fluoro-2-(((2R,7aS)-2-fluorotetrahydro-1H-pyrrolizin-7a(5H)-yl)methoxy)quinazolin-4-yl)-N-methyloctahydrocyclopenta[c]pyrrole-5-carboxamide] | 15 | 18 | 6 | 70 | 69 | 17
12 | CCc1c(F)ccc2cc(O)cc(-c3ncc4c(N5C[C@@H](C)N(C(=O)n6ccc(C)n6)[C@@H](C)C5)nc(OC[C@@]56CCCN5C[C@H](F)C6)nc4c3F)c12 [Example 81, ((2S,6R)-4-(7-(8-ethyl-7-fluoro-3-hydroxynaphthalen-1-yl)-8-fluoro-2-(((2R,7aS)-2-fluorotetrahydro-1H-pyrrolizin-7a(5H)-yl)methoxy)pyrido[4,3-d]pyrimidin-4-yl)-2,6-dimethylpiperazin-1-yl)(3-methyl-1H-pyrazol-1-yl)methanone] | 32 | 165 | 93 | 192 | 2160 | 3770
13 | CCc1c(F)ccc2cc(O)cc(-c3ncc4c(N5CCN(C(=O)n6ccc(C)n6)C(C(F)(F)F)C5)nc(OC[C@@]56CCCN5C[C@H](F)C6)nc4c3F)c12 (stereo partly drawn) [Example 127, (4-(7-(8-ethyl-7-fluoro-3-hydroxynaphthalen-1-yl)-8-fluoro-2-(((2R,7aS)-2-fluorotetrahydro-1H-pyrrolizin-7a(5H)-yl)methoxy)pyrido[4,3-d]pyrimidin-4-yl)-2-(trifluoromethyl)piperazin-1-yl)(3-methyl-1H-pyrazol-1-yl)methanone] | 193 | 224 | 407 | 514 | 635 | 7190
